Test results: a melting point compilation (Tetko et al.; mined from patent text by program, amines drawn as free bases though some values may be those of a salt)

melting point	SMILES
283 to 284 °C	Cc1c(O)ccc2c(=O)c(-c3cccc(C(F)(F)F)c3)coc12
197 to 199 °C	Cc1ccc(Oc2ccc(C(=O)N=C(N)N)cc2S(C)(=O)=O)cn1
165 to 167 °C	CCOc1ccc2c(c1)CCc1c(cccc1C(=O)O)S2
188 to 190 °C	O=C(O)CC(C(=O)O)C(CSc1nc2ccccc2s1)C(=O)O (centres undefined)
124 to 125 °C	CCC(O)(c1ccc(OCCCN2CCCCC2)cc1)c1cccc(C(F)(F)F)c1 (centres undefined)
122 to 124 °C	Cc1c(CO)c2cnnc(OCc3ccc(F)cc3)c2n1Cc1ccccc1
135 to 136 °C	CN1CCC(O)(c2ccccc2N)CC1
142 to 165 °C	CS(=O)c1ccc(C2CCCC(=O)N2c2ccc(Cl)cc2)cc1 (centres undefined)
154 °C	O=CN[C@H]1CC[C@H](CCN2CCN(c3nccc4c3OCC4)CC2)CC1
288 to 291 °C	O=c1c([N+](=O)[O-])c[nH]c2sccc12
103 to 104 °C	CC(=O)N[C@@H](CSC(=O)C(C)(C)C)C(=O)NCCSC(=O)C(C)C
224 to 225 °C	NC(=O)c1n[nH]c2c(=O)[nH]c3cc(Cl)ccc3c(=O)c12
173 to 175 °C	O=c1c2ccccc2c(Br)c(Br)c2ccc(Br)cc12
87 to 88 °C	CCCCc1cc2cc(NS(C)(=O)=O)ccn2c1C(=O)c1ccc(OCCCN(CCCC)CCCC)cc1
165 to 166 °C	O=c1oc2cc(Oc3nnnn3-c3ccccc3)ccc2c2c1CN(Cc1ccccc1)CC2
217 °C	Cc1cc(F)ccc1-c1cncc(OC2SCC(O)C(O)C2O)c1 (centres undefined)
39 to 42 °C	OCCCC1(c2ccccc2)OCCO1
84 to 86 °C	CCOC(=O)Cc1cc(O)ccc1CCc1cc2cc(C#N)ccc2o1
240 to 241 °C	O=C1Nc2ccccc2S(=O)(=O)c2cc(C(F)(F)F)ccc21
110 °C	CC(C)c1ccc(C(=O)c2ccc(N)cc2)cc1
235 °C	COc1cc2c(=O)n(CCOCCO)c3c4cc5c(cc4ncc3c2cc1OC)OCO5
175 to 176 °C	NC(=O)c1cc2c(Oc3cccc(C(F)(F)F)c3)cncc2s1
135 to 137 °C	NS(=O)(=O)c1cc2ccc(O)cc2c(S(N)(=O)=O)c1-c1cccc(Cl)c1O
98 to 101 °C	CCCCOC(=O)Cn1cccc1-c1nc(-c2ccc(OC)cc2)c(-c2ccc(OC)cc2)s1
125 to 127 °C	COC(=O)c1ccc(OCCNC(=O)c2ccc(Cl)cc2)cc1

melting point	SMILES
91 to 92 °C	CCOC(=O)c1cc2c(C(F)(F)F)ccc3c2n1CCN3C
142 °C	COc1cc(-c2nc(C(C)C)no2)cc2oc(=O)c(C)c(C)c12
> 250 °C	Nc1cccc(C(=O)Nc2ccc(-c3c[nH]c(=O)cn3)cc2)c1
128 to 129 °C	CCOC1Oc2ccc3cc(C#N)c(Cn4cncn4)cc3c2C1(C)C (centres undefined)
145 to 146 °C	CC(=O)NCCNC(=O)CCCCC1CCSS1 (centres undefined)
166 to 168 °C	CC(c1ccc2c(c1)Sc1ccccc1CC2)N(O)C(N)=O (centres undefined)
192 °C	O=S(=O)(NCCO)c1cccc(-c2cc(-c3nc(-c4ccc(C(F)(F)F)cc4)cc(C(F)(F)F)n3)ccn2)c1
76 to 78 °C	FC(F)(F)CSC1(c2cccc(OCc3ccc4ccccc4c3)c2)CCOCC1
150 to 153 °C	CC(C)(C)N1CCCC1=C(C#N)c1ccc(Cl)cc1
195 to 197 °C	Cc1oc(-c2ccc(C(F)(F)F)cc2)nc1-c1ccc2c(Br)c(OC(Cc3ccccc3)C(=O)O)ccc2c1 (centres undefined)
90 to 94 °C	CCOC(=O)Cc1c(C)n(CCCc2ccccc2)c2cccc(OCc3csc(-c4ccccc4)n3)c12
203 to 205 °C	CNc1nc2ccc(CCc3nc4cc(OC)ccn4c3C)cc2o1
186 to 188 °C	FC(F)(F)c1nc(Cl)c(Cl)[nH]1
105 to 109 °C	COc1cc(C(=O)NS(=O)(=O)c2ccccc2C)ccc1Cn1cc(CCC(=O)N(C)C)c2ccc(CCC(=O)N(C)C)cc21
> 160 °C	CC(C)n1nc2c(F)cccc2c1-c1ccc(O)cc1O
96 to 97 °C	Cc1ccc(N2CCN(CCC3CN(C)C(=O)O3)CC2)cc1 (centres undefined)
132 to 146 °C	COc1cc2c(cc1Nc1ncc(Cl)c(N[C@H]3[C@@H](C(N)=O)[C@@H]4C=C[C@H]3C4)n1)CCN(CCS(C)(=O)=O)CC2
100 to 102 °C	CCCCCCCc1cc(O)cc2c1C(=O)OC(C)(C)O2
62 to 64 °C	CCOC(=O)CC/C=C(\C)c1sccc1Br
98 to 100 °C	CCOC(=O)C(=O)c1ccc(OCCOc2ccc3ccccc3c2)s1
150 °C	CC(CN1CCCC1)N1c2ccccc2Sc2ccc(C(N)=S)cc21 (racemic)
151 to 155 °C	COC(=O)c1cscc1NC(=O)COc1ccc(-c2ccccc2Cl)cn1
119 to 120 °C	COC(=O)CC(NC(=O)OC(C)(C)C)c1ccc(O)cc1 (centres undefined)
104 °C	CC(=O)c1cc(-c2ccc(C)cc2)c(OCc2ccccc2)c(C(C)(C)C)c1
142 to 143 °C	O=C(O)c1cccc(-c2cccc(OCCc3cccc(F)c3)n2)c1

melting point	SMILES
155 to 157 °C	CNc1nc(SC)ncc1CO
155 °C	Clc1cccc2cc3cccc(Cl)c3cc12
245 to 247 °C	COc1cc2nc(N)nc(-c3ccc(O)cc3Cl)c2cc1OC
> 200 °C	N[C@@H](Cc1ccc([N+](=O)[O-])cc1I)C(=O)O
83 to 84 °C	COc1ccc(C=CC(=O)c2cccc(OCCCCCBr)c2)cc1
165 to 166 °C	Clc1cc(Nc2ccc(N3CCOCC3)cc2)ncn1
86 to 87 °C	CCCCCCCCCCCCCCCCCNC(=O)O[C@@H]1CCCO[C@H]1COc1cc(CCCCO)on1 (relative stereo)
72 to 74 °C	Cc1cc(C(=CC(=O)c2ccc(Cl)cc2)C(F)(F)F)ccc1NC(=O)OC(C)(C)C
212 to 214 °C	C=CCc1ccc(OCC2CCCO2)c2c(=O)cc(C(N)=O)oc12 (centres undefined)
149 to 150 °C	C=C1CC(COc2ccc3c(C)c(Cl)c(=O)oc3c2)(c2ccccc2)OC1=O (centres undefined)
340 to 342 °C	O=c1[nH]ccc2c1c(O)nc1cc(Cl)ccc12
136 to 139 °C	CCCc1c(OCCCCCCc2ccc(C(=O)CCCC(=O)O)cc2CCC(=O)O)ccc2c1OCCC2=O
112 to 114 °C	O=C(/C=C/C=C(c1ccc(F)cc1)c1ccc(F)cc1)Oc1ccc([N+](=O)[O-])cc1
110 to 112 °C	CN(C(=O)CN(O)C(N)=O)c1cccc(Oc2ccccc2)c1
110 to 112 °C	Cc1sc(N2C(=O)c3ccccc3C2=O)c(C(=O)c2ccc(Cl)cc2)c1CN1CCN(c2ccc(F)cc2)CC1
180 to 185 °C	COC(=O)CCc1ccc(OCc2cccc(-c3cccc(C(=O)O)c3)c2)cc1
160 to 162 °C	NC1=NS(=O)N=C1NCCCN(Cc1cccc(F)c1)c1ccccn1 (centres undefined)
95 °C	CC1Cc2ccc(C#N)cc2C1=O (centres undefined)
178 to 180 °C	COc1ccccc1[C@H](c1cccc2ccccc12)[C@@](C)(C#N)C(=O)N1CCN(c2ccc(Cl)cc2)CC1
98 to 99 °C	CCNC(=O)c1c(Cl)cccc1[Si](C)(C)CBr
134 to 135 °C	Fc1ccc(-c2ccnc(Nc3ccc4c(c3)OCCO4)c2)cc1
186 to 187 °C	COCCNC(=O)c1cc2c(nc(C)n2C)c2c1CCC1(Cc3ccccc3C1)N2
165 to 169 °C	CN(Cc1ccc(S(C)(=O)=O)c(S(N)(=O)=O)c1)S(C)(=O)=O
118 to 119 °C	Cc1oc(-c2ccccc2)nc1COc1ccc(COc2cccnc2CO)cc1
170 to 171 °C	CCCC(=O)Nc1n[nH]c2c(N)cc(C)nc12

melting point	SMILES
153 to 154 °C	COc1ccc2c(=O)c(-c3ccc(OCC4CO4)cc3)coc2c1 (centres undefined)
60 to 62 °C	Cc1cc(O)c(C)cc1O
329 to 331 °C	NC(=O)c1nc(-c2cccc(O)c2)nc2c1[nH]c(=O)n2-c1ccccc1Oc1ccccc1
194 to 196 °C	COC(=O)c1ccccc1S(=O)(=O)Cc1c(O)ccc2c1CCCC2=O
213 to 214 °C	CCCn1c(=O)c2c(nc(/C=C/c3ccc(OC)c4ccccc34)n2C)n(CCC)c1=O
60 to 62 °C	COC(=O)C(C)(C)CCCOc1cc(C)c(NC(=O)C(C)(C)CCCOc2cc(C)ccc2C)cc1C
132 °C	CCCCn1cccc1C(=O)N(C)C
117 to 118 °C	COC(=O)C=Cc1ccc(OCC(C)=O)cc1
103 °C	Cc1ccc(S(=O)(=O)N2[C@@H](Cc3nc(C)no3)CC[C@H]2c2ccc(F)cc2)cc1 (racemic)
123 to 125 °C	COC(=O)c1nc(-c2ccc([Si](C)(C)C)c(F)c2F)c(F)c(N)c1OC
166 to 167 °C	CCOc1c(C(=O)O)oc2c3cc(OC)ccc3n(-c3ccccc3)c12
196 to 198 °C	Oc1ccc(C2=NCCCO2)cc1
149 to 151 °C	O=c1[nH]c(=O)n(Cc2ccc(OCCCCCCCCCOc3ccc(Cn4oc(=O)[nH]c4=O)cc3)cc2)o1
57 to 58 °C	O=S(c1ccccc1-c1ccccc1)C(F)(F)F (centres undefined)
170 to 171 °C	COc1ccc(CC(=O)NC(NC(=NC#N)Nc2c(F)cc(F)cc2F)C(C)(C)C)cc1OC (centres undefined)
223 to 225 °C	COc1cc2nc(N3CCN(C(=O)C4CCCCC4)CC3)nc(N)c2cc1OC
135 to 137 °C	Nc1nc2c(Oc3ccccc3)cccc2s1
130 °C	CN(C)C(=O)Sc1ccccc1C(=O)c1ccccc1C#N
137 to 139 °C	CC1=C(C(=O)OC(C)C)C(c2ccccc2F)n2nncc2N1 (centres undefined)
184 to 188 °C	Cc1noc(NS(=O)(=O)c2ccccc2-c2ccc(-c3ncco3)cc2Cn2ccnc2C(C)C)c1C
220 to 226 °C	Cc1ccnc(C(=O)n2cc(CC(=O)O)c3cc(C)ccc32)c1
193 to 194 °C	Cc1c(-c2ccc(C#N)cc2)c(C#N)c(C2CC2)n1Cc1cnc(Cl)c(CO)c1

SMILES	melting point
Cc1cc(NC(=O)C(C)(O)COc2ccc(OCCBr)cc2)ccc1[N+](=O)[O-] (centres undefined)	135 to 138 °C
CN1Cc2c(-c3nc(CN4C(=O)c5ccccc5C4=O)no3)ncn2-c2cccc(Cl)c2C1=O	237 to 239 °C
